From the Kinase Knowledgebase extract (Sharma et al. 2016) come the findings set out here.

What is called IC50 is the concentration that gives 50% inhibition. A high value points to a need for much substance.

Experiment [1] has as its target CDK2 (UniProt P24941). Kind of experiment: Enzyme Assay.
In experiment [2] the target is CDK2 (UniProt P24941). Kind of experiment: Enzyme Assay. This is another data set of the same source.

On to `CN1CCN(NC(=O)Nc2cccc3c2C(=O)c2c-3n[nH]c2-c2ccc(OCCN3CCOCC3)cc2)CC1`, for which the half-maximal inhibitory concentration (IC50) in experiment [1] is less than 10 nM; in experiment [2], less than 100 nM.

With `CC(C)c1nn(-c2c(Cl)cccc2Cl)c2nc(Cc3ccc(O)c(CN4CCN(C(C)C)CC4)c3)[nH]c(=O)c12`, the IC50 in experiment [1] and in experiment [2] was less than 100 nM each time.

On to `CC(C)c1nn(-c2c(Cl)cc(Cl)cc2Cl)c2nc(Cc3ccc(OCCN4CCOCC4)cc3)[nH]c(=O)c12`, for which the IC50 in experiment [1] and in experiment [2] was less than 100 nM throughout.

On to `CC(C)c1nn(-c2c(Cl)cc(Cl)cc2Cl)c2nc(Cc3ccc(NS(=O)(=O)CCCN4CCOCC4)cc3)[nH]c(=O)c12`, for which the IC50 in experiment [1] and in experiment [2] was less than 100 nM throughout.

On to `O=C(Nc1cccc2c1C(=O)c1c-2n[nH]c1-c1ccc(OCCN(CCO)CCO)cc1)NN1CCOCC1`, for which the half-inhibitory concentration (IC50) in experiment [1] and in experiment [2] was less than 100 nM throughout.

Consider `CCCN(CCOc1ccc(-c2[nH]nc3c2C(=O)c2c(NC(=O)NN4CCOCC4)cccc2-3)cc1)CC1CC1`, for which the half-maximal inhibitory concentration (IC50) in experiment [1] and in experiment [2] was less than 100 nM in each case.

For `CN1CCN(NC(=O)Nc2cccc3c2C(=O)c2c-3n[nH]c2-c2ccc(OCCN3CCCC3)cc2)CC1`, the half-maximal inhibitory concentration (IC50) in experiment [1] and in experiment [2] was less than 100 nM each time.

For `O=C(Nc1cccc2c1C(=O)c1c-2n[nH]c1-c1ccc(OCCN2CCCC2)cc1)NN1CCOCC1`, the half-maximal inhibitory concentration (IC50) in experiment [1] and in experiment [2] was less than 100 nM throughout.

The compound `CC(C)c1nn(-c2c(Cl)cccc2Cl)c2nc(Cc3ccc(OCC(C)(C)O)cc3)[nH]c(=O)c12` returned a 50% inhibitory concentration (IC50) in experiment [1] of less than 100 nM.

On to `CC(C)N1CCN(CCOc2ccc(-c3[nH]nc4c3C(=O)c3c(NC(=O)NN5CCOCC5)cccc3-4)cc2)CC1`, for which the half-maximal inhibitory concentration (IC50) in experiment [1] and in experiment [2] was less than 10 nM each time.

In turn, `CN1CCN(NC(=O)Nc2cccc3c2C(=O)c2c-3n[nH]c2-c2ccc(O)cc2)CC1` registered an IC50 in experiment [1] of less than 100 nM.

Regarding `CN1CCN(Cc2ccc(-c3n[nH]c4c3C(=O)c3c(NC(=O)NN5CCOCC5)cccc3-4)cc2)CC1`, the 50% inhibitory concentration (IC50) in experiment [1] is less than 100 nM.

In experiment [1], `CN1CCN(NC(=O)Nc2cccc3c2C(=O)c2c-3n[nH]c2-c2ccc(OCC(=O)N3CCCC3)cc2)CC1` gave a half-maximal inhibitory concentration (IC50) of less than 100 nM.

`CC(C)c1nn(-c2c(Cl)cc(Cl)cc2Cl)c2nc(Cc3ccc(CN4CCCC4)n3C)[nH]c(=O)c12` yielded an IC50 in experiment [1] of less than 100 nM.

As to `CC(C)OC(=O)CN1CCN(NC(=O)Nc2cccc3c2C(=O)c2c-3n[nH]c2-c2ccc(OCCN3CCCC3)cc2)CC1`, the IC50 in experiment [1] is less than 100 nM.

In experiment [1], `CC(C)c1nn(-c2c(Cl)cccc2Cl)c2nc(Cc3ccc(OCCOP(=O)(O)O)cc3)[nH]c(=O)c12` came in with a half-maximal inhibitory concentration (IC50) of less than 100 nM.

As to `CC(C)c1nn(-c2c(Cl)cc(Cl)cc2Cl)c2nc(Cc3ccc(NS(=O)(=O)CCCN4CCCC4)cc3)[nH]c(=O)c12`, the 50% inhibitory concentration (IC50) in experiment [1] is less than 100 nM.

Take `CC(C)c1nn(-c2c(Cl)cccc2Cl)c2nc(Cc3ccc(OP(=O)(O)O)cc3)[nH]c(=O)c12`: the 50% inhibitory concentration (IC50) in experiment [1] was less than 10 nM; in experiment [2], less than 100 nM.

Take `O=C(Nc1cccc2c1C(=O)c1c(-c3ccc(CN(CCO)CCO)cc3)n[nH]c1-2)NN1CCOCC1`: the IC50 in experiment [1] is less than 100 nM.

Regarding `CC(C)c1nn(-c2c(Cl)cc(S(N)(=O)=O)cc2Cl)c2nc(Cc3ccc(OCCN4CCOCC4)cc3)[nH]c(=O)c12`, the half-maximal inhibitory concentration (IC50) in experiment [1] was less than 10 nM.

`CC(C)N1CCN(Cc2cc(-c3[nH]nc4c3C(=O)c3c(NC(=O)NN5CCOCC5)cccc3-4)ccc2O)CC1` displayed a half-maximal inhibitory concentration (IC50) in experiment [1] of less than 100 nM.

Compound `CN(C)C(=O)COc1ccc(-c2[nH]nc3c2C(=O)c2c(NC(=O)NN4CCOCC4)cccc2-3)cc1` came in with a concentration for half-maximal inhibition (IC50) in experiment [1] of less than 10 nM.

`CC(C)N1CCN(CCCOc2ccc(-c3[nH]nc4c3C(=O)c3c(NC(=O)NN5CCOCC5)cccc3-4)cc2)CC1` had an IC50 in experiment [1] of less than 10 nM.

In experiment [1], `CN1CCN(NC(=O)Nc2cccc3c2C(=O)c2c-3n[nH]c2-c2ccc(OCCN3CC[C@H](O)C3)cc2)CC1` yielded a concentration for half-maximal inhibition (IC50) of less than 100 nM.

Consider `CC(C)c1nn(-c2c(Cl)cccc2Cl)c2nc(Cc3ccc(CN4CCN(C(C)C)CC4)c(O)c3)[nH]c(=O)c12`, for which, in experiment [1], the IC50 was less than 100 nM.
